Read-outs that look alike come from different tables or passages of the source.
Assays:
786-O-Hif-Luc cells = test: Luciferase Assay; format: cell-based; conditions: read-out: Luciferase EC50
Experimental: A pool of infected cells were then selected against 2 μg/mL of puromycin (P8833, Sigma) for 10 days followed by limited dilution to select single clones.
Each concentration was tested in triplicate. After about 24 hours, luciferase activity was determined using ONE-Glo Luciferase Assay Reagent (E6110, Promega) following the manufacturer's recommended procedure. EC50 were calculated by using Dotmatics software.

[1] = molecular target: T1, HIF-2α HIS TAG-PASB Domain (Homo sapiens, UniProt Q99814); test: HIF-2α Scintillation Proximity Assay (SPA); format: binding; conditions: 150 nM Compound 211 probe, 100 nM HIF-2α HIS TAG-PASB Domain; read-out: SPA IC50
T1 construct: 100 nM HIF-2α HIS TAG-PASB Domain
T1 sequence (Q99814 240-350 limits assumed): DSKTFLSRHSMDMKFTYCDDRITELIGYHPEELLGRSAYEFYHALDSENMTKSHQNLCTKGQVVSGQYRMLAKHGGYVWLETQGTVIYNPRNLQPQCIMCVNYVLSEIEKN
Experimental: The total assay volume was about 100 μL in the following configuration: 2 μL compound in 100% DMSO, 88 μL buffer with protein and probe and 10 μL of SPA beads. […] The percent inhibition was determined and IC50 values were calculated using the Dotmatics system based on the following equation: % inhibition=[(high control−sample)/(high control−low control)]×100.

[2] = 24 h, 786-O-Hif-Luc cells, about 24 hours
[3] = 786-O-Hif-Luc cells, about 24 hours

CS(=O)(=NC#N)c1ccc(Oc2cc(F)cc(C#N)c2)c2c1[C@H](O)[C@H](F)C2 (mixture of isomers) [Compound 66, N-(((2R,3S)-7-(3-cyano-5-fluorophenoxy)-2-fluoro-3-hydroxy-2,3-dihydro-1H-inden-4-yl)(methyl)(oxo)-λ^6-sulfanylidene)cyanamide]
EC50 (786-O-Hif-Luc cells; [2]): 115 nM
IC50 [1]: 63 nM

N#Cc1cc(F)cc(Oc2ccc(S(=O)(=O)C(F)(F)F)c3c2[C@@H](N)C[C@H]3O)c1 (relative stereo) [Compound 43, 3-((cis-3-amino-1-hydroxy-7-((trifluoromethyl)sulfonyl)-2,3-dihydro-1H-inden-4-yl)oxy)-5-fluorobenzonitrile]
EC50 (786-O-Hif-Luc cells; [2]): 5900 nM
IC50 [1]: 5100 nM

N#Cc1cc(F)cc(Oc2ccc(S(=O)(=O)C(F)(F)F)c3c2CC(F)C3N)c1 (single isomer, unassigned) [Compound 29, 3-((1-amino-2-fluoro-7-((trifluoromethyl)sulfonyl)-2,3-dihydro-1H-inden-4-yl)oxy)-5-fluorobenzonitrile]
EC50 (786-O-Hif-Luc cells; [2]): 897 nM
IC50 [1]: 90 nM

N#Cc1cc(F)cc(Oc2ccc(S(=N)(=O)CF)c3c2CC(F)(F)[C@H]3O)c1 (single isomer, unassigned) [Compound 39]
EC50 (786-O-Hif-Luc cells; [3]): 255 nM
IC50 [1]: 76 nM

N#CN=S(=O)(CF)c1ccc(Oc2cc(F)cc(C#N)c2)c2c1[C@H](O)[C@H](F)C2 (single isomer, unassigned) [Compound 40]
EC50 (786-O-Hif-Luc cells; [3]): 153 nM
IC50 [1]: 58 nM

N#CN=S(=O)(CF)c1ccc(Oc2cc(F)cc(C#N)c2)c2c1[C@H](O)C(F)(F)C2 (single isomer, unassigned) [Compound 49]
EC50 (786-O-Hif-Luc cells; [2]): 100 nM
IC50 [1]: 71 nM

C=CCN=S(=O)(c1ccc(Oc2cc(F)cc(C#N)c2)c2c1[C@H](O)C(F)(F)C2)C(F)(F)F (single isomer, unassigned) [Compound 71]
EC50 (786-O-Hif-Luc cells; [3]): 1670 nM
IC50 [1]: 370 nM

N=S1(=O)c2ccc(Oc3cc(F)cc(F)c3)c(Br)c2C(O)C1(F)F (single isomer, unassigned) [Compound 141, 4-Bromo-5-(3,5-difluorophenoxy)-2,2-difluoro-3-hydroxy-1-imino-2,3-dihydro-1H-1λ^4-benzo[b]thiophene 1-oxide]
EC50 (786-O-Hif-Luc cells; [2]): 544 nM
IC50 [1]: 4100 nM

N=S1(=O)c2ccc(Oc3cc(F)cc(F)c3)c(Br)c2C(O)C1(F)F (single isomer, unassigned) [Compound 142, 4-bromo-5-(3,5-difluorophenoxy)-2,2-difluoro-3-hydroxy-1-imino-2,3-dihydro-1H-1λ^4-benzo[b]thiophene 1-oxide]
EC50 (786-O-Hif-Luc cells; [3]): 286 nM
IC50 [1]: 239 nM

CS(=N)(=O)c1ccc(Oc2cc(F)cc(F)c2)c2c1[C@H](O)C(F)(F)C2 (stereo partly drawn) [Compound 10, ((S)-7-(3,5-Difluorophenoxy)-2,2-difluoro-3-hydroxy-2,3-dihydro-1H-inden-4-yl)(imino)(methyl)-λ^6-sulfanone]
EC50 (786-O-Hif-Luc cells; [2]): 277 nM
IC50 [1]: 177 nM

Cc1cncc(Oc2ccc(S(C)(=O)=O)c3c2CC(F)(F)[C@H]3O)n1 [Compound 11, (S)-2,2-Difluoro-4-((6-methylpyrazin-2-yl)oxy)-7-(methylsulfonyl)-2,3-dihydro-1H-inden-1-ol]
EC50 (786-O-Hif-Luc cells; [2]): 13500 nM
IC50 [1]: < 5 nM

Cc1cc(Oc2cc(F)cc(C#N)c2)c2c(c1S(C)(=O)=O)C(O)C(F)(F)C2 (stereo not shown) [Compound 12, 3-((2,2-Difluoro-1-hydroxy-6-methyl-7-(methylsulfonyl)-2,3-dihydro-1H-inden-4-yl)oxy)-5-fluorobenzonitrile]
EC50 (786-O-Hif-Luc cells; [2]): 775 nM
IC50 [1]: 800 nM

O=S(=O)(CF)c1ccc(Oc2cccc3sccc23)c2c1C(O)C(F)(F)C2 (stereo not shown) [Compound 22, 4-(Benzo[b]thiophen-4-yloxy)-2,2-difluoro-7-((fluoromethyl)sulfonyl)-2,3-dihydro-1H-inden-1-ol]
EC50 (786-O-Hif-Luc cells; [2]): 512 nM
IC50 [1]: 230 nM

N#Cc1cncc(Oc2ccc(S(N)(=O)=O)c3c2CC(F)(F)[C@H]3O)c1 [Compound 25, (S)-7-((5-Cyanopyridin-3-yl)oxy)-2,2-difluoro-3-hydroxy-2,3-dihydro-1H-indene-4-sulfonamide]
EC50 (786-O-Hif-Luc cells; [2]): 1100 nM
IC50 [1]: 17600 nM

O=S(=O)(c1ccc(Oc2cc(Cl)c[n+]([O-])c2)c2c1[C@H](O)C(F)(F)C2)C(F)(F)F [Compound 28, (S)-3-Chloro-5-((2,2-difluoro-1-hydroxy-7-((trifluoromethyl)sulfonyl)-2,3-dihydro-1H-inden-4-yl)oxy)pyridine 1-oxide]
EC50 (786-O-Hif-Luc cells; [2]): 173 nM
IC50 [1]: 66 nM

N#Cc1cc(F)cc(Oc2ccc(S(=O)(=O)C(F)(F)F)c3c2CC(F)C3N)c1 (stereo not shown) [Compound 32, 3-((1-amino-2-fluoro-7-((trifluoromethyl)sulfonyl)-2,3-dihydro-1H-inden-4-yl)oxy)-5-fluorobenzonitrile]
EC50 (786-O-Hif-Luc cells; [2]): 2450 nM
IC50 [1]: 3510 nM

CS(=O)(=O)c1ccc(Oc2cc(F)cc(C#N)c2)c2c1C(=O)C(F)(Cl)C2 (stereo not shown) [Compound 33, 3-((2-chloro-2-fluoro-7-(methylsulfonyl)-1-oxo-2,3-dihydro-1H-inden-4-yl)oxy)-5-fluorobenzonitrile]
EC50 (786-O-Hif-Luc cells; [2]): 19400 nM
IC50 [1]: 310 nM

CS(=O)(=O)c1ccc(Oc2cc(F)cc(C#N)c2)c2c1[C@H](O)C(F)(Cl)C2 (stereo partly drawn) [Compound 34, 3-(((1S)-2-chloro-2-fluoro-1-hydroxy-7-(methylsulfonyl)-2,3-dihydro-1H-inden-4-yl)oxy)-5-fluorobenzonitrile]
EC50 (786-O-Hif-Luc cells; [2]): 100 nM
IC50 [1]: 97 nM

C[S+]([O-])c1ccc(Oc2cc(F)cc(C#N)c2)c2c1[C@H](O)C(F)(F)C2 (stereo partly drawn) [Compound 36, 3-[(1S)-2,2-Difluoro-1-hydroxy-7-methylsulfinyl-indan-4-yl]oxy-5-fluoro-benzonitrile]
EC50 (786-O-Hif-Luc cells; [2]): 2280 nM
IC50 [1]: 2000 nM

N#Cc1cc(F)cc(Oc2ccc(S(=O)(=O)C(F)(F)F)c3c2CC(F)(F)[C@H]3NCCO)c1 [Compound 55, 3-[(1S)-2,2-difluoro-1-(2-hydroxyethylamino)-7-(trifluoromethylsulfonyl)indan-4-yl]oxy-5-fluoro-benzonitrile]
EC50 (786-O-Hif-Luc cells; [2]): 3100 nM
IC50 [1]: 4900 nM

CS(=O)(=O)c1ccc(Oc2cc(F)cc(C#N)c2)c2c1[C@H](O)C(F)(F)[C@H]2F [Compound 57, 3-fluoro-5-[(1S,3S)-2,2,3-trifluoro-1-hydroxy-7-methylsulfonyl-indan-4-yl]oxy-benzonitrile]
EC50 (786-O-Hif-Luc cells; 24 h): 779 nM
IC50 [1]: 720 nM

CS(=O)(=O)c1ccc(Oc2cc(F)cc(C#N)c2)c2c1[C@H](O)C[C@@H]2F [Compound 59, 3-fluoro-5-[(1R,3S)-3-fluoro-1-hydroxy-7-methylsulfonyl-indan-4-yl]oxy-benzonitrile]
EC50 (786-O-Hif-Luc cells; [2]): 390 nM
IC50 [1]: 230 nM

CS(=O)(=O)c1ccc(Oc2cc(F)cc(C#N)c2)c2c1[C@H](O)[C@H](F)[C@@H]2O [Compound 60, 3-fluoro-5-[(1S,2R,3R)-2-fluoro-1,3-dihydroxy-7-methylsulfonyl-indan-4-yl]oxy-benzonitrile]
EC50 (786-O-Hif-Luc cells; [2]): 1320 nM
IC50 [1]: 1340 nM

C[C@@]1(F)Cc2c(Oc3cc(F)cc(C#N)c3)ccc(S(C)(=O)=O)c2[C@@H]1O [Compound 64, 3-fluoro-5-(((1S,2R)-2-fluoro-1-hydroxy-2-methyl-7-(methylsulfonyl)-2,3-dihydro-1H-inden-4-yl)oxy)benzonitrile]
EC50 (786-O-Hif-Luc cells; [2]): 2830 nM
IC50 [1]: 2030 nM

N#Cc1cc(F)cc(Oc2ccc(S(N)(=O)=O)c3c2[C@@H](F)[C@@H](F)[C@H]3O)c1 [Compound 100, (1R,2S,3S)-7-(3-cyano-5-fluoro-phenoxy)-1,2-difluoro-3-hydroxy-indane-4-sulfonamide]
EC50 (786-O-Hif-Luc cells; [2]): 67 nM

N#Cc1cc(F)cc(Oc2ccc(S(N)(=O)=O)c3c2[C@H](F)C(F)(F)[C@H]3O)c1 [Compound 103, (1S,3S)-7-(3-cyano-5-fluoro-phenoxy)-1,2,2-trifluoro-3-hydroxy-indane-4-sulfonamide]
EC50 (786-O-Hif-Luc cells; 24 h): 253 nM

O=S1(=O)CC(O)c2c1ccc(Oc1cc(F)cc(Cl)c1)c2Br (stereo not shown) [Compound 116, 4-Bromo-5-(3-chloro-5-fluorophenoxy)-3-hydroxy-2,3-dihydrobenzo[b]thiophene 1,1-dioxide]
EC50 (786-O-Hif-Luc cells): 4800 nM

O=S1(=O)c2ccc(Oc3cc(F)cc(F)c3)c(C(F)F)c2C(O)C1F (stereo not shown) [Compound 133, 4-(difluoromethyl)-5-(3,5-difluorophenoxy)-2-fluoro-3-hydroxy-2,3-dihydrobenzo[b]thiophene 1,1-dioxide]
EC50 (786-O-Hif-Luc cells; [2]): 124 nM

N#Cc1cc(F)cc(Oc2ccc3c(c2C(F)F)C(O)C(F)(F)S3(=O)=O)c1 (stereo not shown) [Compound 139, 3-((4-(Difluoromethyl)-2,2-difluoro-3-hydroxy-1,1-dioxido-2,3-dihydrobenzo[b]thiophen-5-yl)oxy)-5-fluorobenzonitrile]
EC50 (786-O-Hif-Luc cells; [3]): 4 nM

[2H]C1(O)c2c(ccc(Oc3cc(F)cc(C#N)c3)c2C(F)F)S(=O)(=O)C1(F)F (stereo not shown) [Compound 150, 3-((4-(Difluoromethyl)-2,2-difluoro-3-hydroxy-1,1-dioxido-2,3-dihydrobenzo[b]thiophen-5-yl-3-d)oxy)-5-fluorobenzonitrile]
EC50 (786-O-Hif-Luc cells): 12 nM

[2H][C@@]1(O)c2c(ccc(Oc3cc(F)cc(C#N)c3)c2C(F)F)S(=O)(=O)C1(F)F [Compound 153, (R)-3-((4-(Difluoromethyl)-2,2-difluoro-3-hydroxy-1,1-dioxido-2,3-dihydrobenzo[b]thiophen-5-yl-3-d)oxy)-5-fluorobenzonitrile]
EC50 (786-O-Hif-Luc cells; [3]): 6 nM

From US10098878B2, “HIF-2α inhibitors for treating iron overload disorders” (The Board of Regents of the University of Texas System, priority 2014, dated 2018)
